Source: US20060276464A1, “Diarylsulfone sulfonamides and use thereof” (Wyeth, priority 2005, published 2006)
Like-named read-outs stand apart in the source and are kept apart here.

Molecular target: T1, SFRP-1 (Homo sapiens, UniProt Q8N474)
T1 sequence (Q8N474 32-314): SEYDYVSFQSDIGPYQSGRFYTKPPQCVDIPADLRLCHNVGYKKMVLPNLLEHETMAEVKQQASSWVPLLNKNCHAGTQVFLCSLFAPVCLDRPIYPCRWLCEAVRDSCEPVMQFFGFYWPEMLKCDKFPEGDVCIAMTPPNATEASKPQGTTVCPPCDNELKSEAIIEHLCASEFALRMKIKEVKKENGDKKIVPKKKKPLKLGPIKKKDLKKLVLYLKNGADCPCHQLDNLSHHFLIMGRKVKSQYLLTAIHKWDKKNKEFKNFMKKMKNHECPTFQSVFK
Test: Cell-based assay for in vitro measurement of SFRP-1/SARP2 antagonist activity (U2OS cells co-transfected with 16x TCF-tk-Luciferase reporter, Wnt and hSFRP-1);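 note: U2OS cells co-transfected with a TCF-tk luciferase reporter, a Wnt vector, hSFRP-1 or empty vector and CMV-βgal, luciferase luminescence read in cell lysates alongside βgal activity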

[1] = U2OS, read-out: Fold Induction with SFRP-1, Conc 15 μM, with SFRP-1, fold induction over SFRP-1 control, single dose
[2] = U2OS, read-out: Fold Induction without SFRP-1, Conc 15 μM, without SFRP-1, single dose
[3] = U2OS, read-out: Fold Induction with SFRP-1, Conc 15 μM, single dose, luciferase reporter, fold induction over SFRP-1 control, cells with SFRP-1
[4] = U2OS, read-out: Fold Induction without SFRP-1, Conc 15 μM, single dose, luciferase reporter, cells without SFRP-1 (specificity control)
[5] = U2OS, read-out: Fold Induction with SFRP-1, Conc 30 μM, with SFRP-1, fold induction over SFRP-1 control, single dose
[6] = U2OS, read-out: Fold Induction without SFRP-1, Conc 30 μM, without SFRP-1, single dose

| SMILES | fold induction at 15 µM [1] | fold induction at 15 µM [2] | also measured |
| --- | --- | --- | --- |
| CCOc1cc(CCNS(=O)(=O)c2cc(S(=O)(=O)c3ccccc3)ccc2OC)ccc1OC [Example 157, N-[2-(3-ethoxy-4-methoxyphenyl)ethyl]-2-methoxy-5-(phenylsulfonyl)benzenesulfonamide] | 1.5 | 1.2 | – |
| Cc1ccc(S(=O)(=O)c2ccc(F)cc2)cc1S(=O)(=O)N(C(=O)C1CC1)C1CCN(C(=O)C2CC2)CC1 [Example 602, N-[1-(cyclopropylcarbonyl)piperidin-4-yl]-N-({5-[(4-fluorophenyl)sulfonyl]-2-methylphenyl}sulfonyl)cyclopropanecarboxamide] | – | – | fold induction at 15 µM [3]: 1.3; fold induction at 15 µM [4]: 1.1 |
| CCC(CC)NS(=O)(=O)c1cc(S(=O)(=O)c2ccccc2)ccc1C [Example 397, N-(1-ethylpropyl)-2-methyl-5-(phenylsulfonyl)benzenesulfonamide] | 1.2 | 1.1 | – |
| COCCCNS(=O)(=O)c1cc(S(=O)(=O)c2ccccc2)ccc1OC [Example 238, 2-methoxy-N-(3-methoxypropyl)-5-(phenylsulfonyl)benzenesulfonamide] | 1.3 | 0.9 | – |
| COC(=O)[C@@H](Cc1ccccc1)NS(=O)(=O)c1cc(S(=O)(=O)c2ccccc2)ccc1C [Example 365, methyl N-{[2-methyl-5-(phenylsulfonyl)phenyl]sulfonyl}-D-phenylalaninate] | 1.3 | 1.1 | – |
| CC(C)c1ccc(S(=O)(=O)c2ccc(F)cc2)cc1S(=O)(=O)NC[C@@H](C)c1ccccc1 [Example 444, 5-[(4-fluorophenyl)sulfonyl]-2-isopropyl-N-[(2S)-2-phenylpropyl]benzenesulfonamide] | 1.4 | 1.1 | – |
| Cc1ccc(S(=O)(=O)c2ccc(F)cc2)cc1S(=O)(=O)NC[C@H](C)c1ccccc1 [Example 251, 5-[(4-fluorophenyl)sulfonyl]-2-methyl-N-[(2R)-2-phenylpropyl]benzenesulfonamide] | – | – | fold induction at 20 µM (U2OS, read-out: Fold Induction with SFRP-1, Conc 20 μM, with SFRP-1, fold induction over SFRP-1 control, single dose): 3; fold induction at 20 µM (U2OS, read-out: Fold Induction without SFRP-1, Conc 20 μM, without SFRP-1, single dose): 0.8 |
| Cc1cc(C)c(S(=O)(=O)c2ccccc2)cc1S(=O)(=O)NCCc1ccccn1 [Example 326, 2,4-dimethyl-5-(phenylsulfonyl)-N-(2-pyridin-2-ylethyl)benzenesulfonamide] | 2.4 | 1 | – |
| Cc1cc(C)c(S(=O)(=O)c2ccccc2)cc1S(=O)(=O)NCCCn1ccnc1 [Example 325, N-[3-(1H-imidazol-1-yl)propyl]-2,4-dimethyl-5-(phenylsulfonyl)benzenesulfonamide] | 3 | 1.1 | – |
| Cc1ccc(S(=O)(=O)c2ccc(N3CCCCC3)cc2)cc1S(=O)(=O)NCCCn1ccnc1 [Example 312, N-[3-(1H-imidazol-1-yl)propyl]-2-methyl-5-[(4-piperidin-1-ylphenyl)sulfonyl]benzenesulfonamide] | 1.6 | 0.9 | – |
| CCc1ccc(S(=O)(=O)c2ccccc2)cc1S(=O)(=O)NCCCN1CCCC1 [Example 232, 2-ethyl-5-(phenylsulfonyl)-N-(3-pyrrolidin-1-ylpropyl)benzenesulfonamide] | 4.2 | 1.6 | – |
| COc1ccc(S(=O)(=O)c2ccccc2)cc1S(=O)(=O)NCCc1ccccn1 [Example 234, 2-methoxy-5-(phenylsulfonyl)-N-(2-pyridin-2-ylethyl)benzenesulfonamide] | 1.2 | 1 | – |
| Cc1ccc(S(=O)(=O)c2ccccc2)cc1S(=O)(=O)N1CCN(CCN2CCCC2)CC1 [Example 282, 1-{[2-methyl-5-(phenylsulfonyl)phenyl]sulfonyl}-4-(2-pyrrolidin-1-ylethyl)piperazine] | 2.4 | 1.6 | – |
| O=S(=O)(c1ccccc1)c1ccc(Cl)c(S(=O)(=O)N2CCC(N3CCCC3)CC2)c1 [Example 635, 1-{[2-chloro-5-(phenylsulfonyl)phenyl]sulfonyl}-4-pyrrolidin-1-ylpiperidine] | – | – | fold induction at 15 µM [3]: 2; fold induction at 15 µM [4]: 1.7 |
| Cc1ccc(S(=O)(=O)c2ccc(F)cc2)cc1S(=O)(=O)NCCN(C)C [Example 172, N-[2-(dimethylamino)ethyl]-5-[(4-fluorophenyl)sulfonyl]-2-methylbenzenesulfonamide] | 1.9 | 1.1 | – |
| Cc1ccc(S(=O)(=O)c2ccc(F)cc2)cc1S(=O)(=O)NCC1CCOCC1 [Example 383, 5-[(4-fluorophenyl)sulfonyl]-2-methyl-N-(tetrahydro-2H-pyran-4-ylmethyl)benzenesulfonamide] | 2.1 | 0.9 | – |

| SMILES | fold induction at 15 µM [1] | fold induction at 15 µM [2] | also measured |
| --- | --- | --- | --- |
| CCc1ccc(S(=O)(=O)c2ccccc2)cc1S(=O)(=O)N1CCN(CC(=O)N2CCCC2)CC1 [Example 285, 1-{[2-ethyl-5-(phenylsulfonyl)phenyl]sulfonyl}-4-(2-oxo-2-pyrrolidin-1-ylethyl)piperazine] | 2 | 1.1 | – |
| Cc1ccc([S+]([O-])c2ccccc2)cc1S(=O)(=O)NCCCn1ccnc1 (centres unmarked) [Example 346, N-[3-(1H-imidazol-1-yl)propyl]-2-methyl-5-(phenylsulfinyl)benzenesulfonamide] | 2.4 | 1.3 | – |
| Cc1ccc(S(=O)(=O)c2ccc(F)cc2)cc1S(=O)(=O)NCCc1ccccc1 [Example 2, 5-[(4-fluorophenyl)sulfonyl]-2-methyl-N-(2-phenylethyl)benzenesulfonamide] | – | – | fold induction at 30 µM [5]: 0.9; fold induction at 30 µM [6]: 0.5 |
| Cc1ccc(S(=O)(=O)c2ccc(F)cc2)cc1S(=O)(=O)NCC(O)c1ccccn1 (centres unmarked) [Example 756, 5-[(4-fluorophenyl)sulfonyl]-N-(2-hydroxy-2-pyridin-2-ylethyl)-2-methylbenzenesulfonamide] | – | – | fold induction at 10 µM (U2OS, read-out: Fold Induction with SFRP-1, U2OS cells, single dose 10 μM, luciferase reporter, fold induction over SFRP-1 control): 1.3 |
| COc1cccc(CCNS(=O)(=O)c2cc(S(=O)(=O)c3ccccc3)ccc2OC)c1 [Example 152, 2-methoxy-N-[2-(3-methoxyphenyl)ethyl]-5-(phenylsulfonyl)benzenesulfonamide] | 1.6 | 1.1 | – |
| CCN(CC)C1CCN(S(=O)(=O)c2cc(S(=O)(=O)c3ccccc3)ccc2Cl)C1 (centres unmarked) [Example 644, 1-{[2-chloro-5-(phenylsulfonyl)phenyl]sulfonyl}-N,N-diethylpyrrolidin-3-amine] | – | – | fold induction at 15 µM [3]: 1.3; fold induction at 15 µM [4]: 1.1 |
| COc1ccccc1S(=O)(=O)c1ccc(C)c(S(=O)(=O)NCCCn2ccnc2)c1 [Example 316, N-[3-(1H-imidazol-1-yl)propyl]-5-[(2-methoxyphenyl)sulfonyl]-2-methylbenzenesulfonamide] | 2.5 | 1.1 | – |
| CCCc1ccc(S(=O)(=O)c2ccc(F)cc2)cc1S(N)(=O)=O [Example 566, 5-[(4-Fluorophenyl)sulfonyl]-2-propylbenzenesulfonamide] | – | – | fold induction at 15 µM [3]: 1.5; fold induction at 15 µM [4]: 1.3 |
| COC(=O)C(C)(C)NS(=O)(=O)c1cc(S(=O)(=O)c2ccccc2)ccc1Cl [Example 654, methyl N-{[2-chloro-5-(phenylsulfonyl)phenyl]sulfonyl}-2-methylalaninate] | – | – | fold induction at 15 µM [3]: 1; fold induction at 15 µM [4]: 1 |
| Cc1c(S(=O)(=O)NCCc2ccccn2)cccc1S(=O)(=O)c1ccccc1 [Example 494, 2-methyl-3-(phenylsulfonyl)-N-(2-pyridin-2-ylethyl)benzenesulfonamide] | – | – | fold induction at 15 µM [3]: 1; fold induction at 15 µM [4]: 1.1 |
| CCOc1cc(CCNS(=O)(=O)c2cc(S(=O)(=O)c3ccccc3)ccc2C)ccc1OC [Example 54, N-[2-(3-ethoxy-4-methoxyphenyl)ethyl]-2-methyl-5-(phenylsulfonyl)benzenesulfonamide] | – | – | Fold Induction with SFRP-1 (Conc 30 μM, with SFRP-1, fold induction over SFRP-1 control, single dose): 3.6 fold; fold induction at 30 µM [5]: 3.8; fold induction at 30 µM [6]: 1.1 |
| Cc1ccc(S(=O)(=O)c2ccc(Cl)cc2)cc1S(=O)(=O)NCCc1ccccc1Cl [Example 89, N-[2-(2-chlorophenyl)ethyl]-5-[(4-chlorophenyl)sulfonyl]-2-methylbenzenesulfonamide] | – | – | fold induction at 30 µM [5]: 1.8; fold induction at 30 µM [6]: 0.5 |
| Cc1ccc(S(=O)(=O)c2ccc(F)cc2)cc1S(=O)(=O)NCCc1c[nH]cn1 [Example 167, 5-[(4-fluorophenyl)sulfonyl]-N-[2-(1H-imidazol-4-yl)ethyl]-2-methylbenzenesulfonamide] | 3 | 1 | – |
| Cc1ccc(S(=O)(=O)c2ccccc2)cc1S(=O)(=O)NCCN(C)C [Example 214, N-[2-(dimethylamino)ethyl]-2-methyl-5-(phenylsulfonyl)benzenesulfonamide] | 3.2 | 1.5 | – |
| N#CCCNS(=O)(=O)c1cccc(S(=O)(=O)c2ccccc2)c1 [Example 183, N-(2-cyanoethyl)-3-(phenylsulfonyl)benzenesulfonamide] | – | – | fold induction at 30 µM [5]: 1.3; fold induction at 30 µM [6]: 1 |
